Assay results: patent publication US11117892B2, “Pyrrolo-pyridine derivative compound, method for preparing same, and pharmaceutical composition containing same as active ingredient for prevention or treatment of protein kinase-related diseases” (DAEGU-GYEONGBUK MEDICAL INNOVATION FOUNDATION, priority 2017, dated 2021)

Legend:
Assay in all cases: scanMAX Kinase assay panel
Format in all cases: binding
Conditions in all cases: read-out: % control
p38-delta = p38-delta (Homo sapiens (Human), UniProt O15264)
Procedure, shortened: (§1)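 Selectivity was measured on the scanMAX platform. The compound signal minus the positive-control signal was divided by the DMSO-minus-positive-control window and multiplied by 100.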

CDK4-cyclinD1 = CDK4-cyclinD1 (Homo sapiens (Human), UniProt P11802)
Procedure, shortened: as §1

KIT(A829P) = KIT(A829P) (Homo sapiens (Human), UniProt P10721, A829P)
Procedure, shortened: as §1

CDK4-cyclinD3 = CDK4-cyclinD3 (Homo sapiens (Human), UniProt P11802)
Procedure, shortened: as §1

FLT3-autoinhibited = FLT3-autoinhibited (Homo sapiens (Human), UniProt P36888)
Procedure, shortened: as §1

ROS1 = ROS1 (Homo sapiens (Human), UniProt P08922)
Procedure, shortened: as §1

AMPK-alpha1 = AMPK-alpha1 (Homo sapiens (Human), UniProt Q13131)
Procedure, shortened: as §1

CDK9 = CDK9 (Homo sapiens (Human), UniProt P50750)
Procedure, shortened: as §1

HIPK3 = HIPK3 (Homo sapiens (Human), UniProt Q9H422)
Procedure, shortened: as §1

PAK6 = PAK6 (Homo sapiens (Human), UniProt Q9NQU5)
Procedure, shortened: as §1

PAK7 = PAK7 (Homo sapiens (Human), UniProt Q9P286)
Procedure, shortened: as §1

KIT(V559D, V654A) = KIT(V559D, V654A) (Homo sapiens (Human), UniProt P10721, V559D/V654A)
Procedure, shortened: as §1

PRKCQ = PRKCQ (Homo sapiens (Human), UniProt Q04759)
Procedure, shortened: as §1

NEK4 = NEK4 (Homo sapiens (Human), UniProt P51957)
Procedure, shortened: as §1

TRKA = TRKA (Homo sapiens (Human), UniProt P04629)
Procedure, shortened: as §1

EPHB3 = EPHB3 (Homo sapiens (Human), UniProt P54753)
Procedure, shortened: as §1

ERBB3 = ERBB3 (Homo sapiens (Human), UniProt P21860)
Procedure, shortened: as §1

[1] = molecular target: TYK2(JH2domain-pseudokinase) (Homo sapiens (Human), UniProt P29597)
Procedure, shortened: as §1

PIM2 = PIM2 (Homo sapiens (Human), UniProt Q9P1W9)
Procedure, shortened: as §1

[2] = molecular target: RPS6KA4(Kin.Dom.1-N-terminal) (Homo sapiens (Human), UniProt O75676)
Procedure, shortened: as §1

KIT(V559D) = KIT(V559D) (Homo sapiens (Human), UniProt P10721, V559D)
Procedure, shortened: as §1

DAPK3 = DAPK3 (Homo sapiens (Human), UniProt O43293)
Procedure, shortened: as §1

PRKG1 = PRKG1 (Homo sapiens (Human), UniProt Q13976)
Procedure, shortened: as §1

PAK4 = PAK4 (Homo sapiens (Human), UniProt O96013)
Procedure, shortened: as §1

CAMK2A = CAMK2A (Homo sapiens (Human), UniProt Q9UQM7)
Procedure, shortened: as §1

MAP4K4 = MAP4K4 (Homo sapiens (Human), UniProt O95819)
Procedure, shortened: as §1

FYN = FYN (Homo sapiens (Human), UniProt P06241)
Procedure, shortened: as §1

TAOK2 = TAOK2 (Homo sapiens (Human), UniProt Q9UL54)
Procedure, shortened: as §1

SGK2 = SGK2 (Homo sapiens (Human), UniProt Q9HBY8)
Procedure, shortened: as §1

ANKK1 = ANKK1 (Homo sapiens (Human), UniProt Q8NFD2)
Procedure, shortened: as §1

EGFR = EGFR (Homo sapiens (Human), UniProt P00533)
Procedure, shortened: as §1

PIK3CG = PIK3CG (Homo sapiens (Human), UniProt P48736)
Procedure, shortened: as §1

AKT2 = AKT2 (Homo sapiens (Human), UniProt P31751)
Procedure, shortened: as §1

QSK = QSK (Homo sapiens (Human), UniProt Q9Y2K2)
Procedure, shortened: as §1

ULK2 = ULK2 (Homo sapiens (Human), UniProt Q8IYT8)
Procedure, shortened: as §1

EPHB4 = EPHB4 (Homo sapiens (Human), UniProt P54760)
Procedure, shortened: as §1

DAPK2 = DAPK2 (Homo sapiens (Human), UniProt Q9UIK4)
Procedure, shortened: as §1

BRAF = BRAF (Homo sapiens (Human), UniProt P15056)
Procedure, shortened: as §1

MEK5 = MEK5 (Homo sapiens (Human), UniProt Q13163)
Procedure, shortened: as §1

Sequence of BRAF (P15056 whole entry): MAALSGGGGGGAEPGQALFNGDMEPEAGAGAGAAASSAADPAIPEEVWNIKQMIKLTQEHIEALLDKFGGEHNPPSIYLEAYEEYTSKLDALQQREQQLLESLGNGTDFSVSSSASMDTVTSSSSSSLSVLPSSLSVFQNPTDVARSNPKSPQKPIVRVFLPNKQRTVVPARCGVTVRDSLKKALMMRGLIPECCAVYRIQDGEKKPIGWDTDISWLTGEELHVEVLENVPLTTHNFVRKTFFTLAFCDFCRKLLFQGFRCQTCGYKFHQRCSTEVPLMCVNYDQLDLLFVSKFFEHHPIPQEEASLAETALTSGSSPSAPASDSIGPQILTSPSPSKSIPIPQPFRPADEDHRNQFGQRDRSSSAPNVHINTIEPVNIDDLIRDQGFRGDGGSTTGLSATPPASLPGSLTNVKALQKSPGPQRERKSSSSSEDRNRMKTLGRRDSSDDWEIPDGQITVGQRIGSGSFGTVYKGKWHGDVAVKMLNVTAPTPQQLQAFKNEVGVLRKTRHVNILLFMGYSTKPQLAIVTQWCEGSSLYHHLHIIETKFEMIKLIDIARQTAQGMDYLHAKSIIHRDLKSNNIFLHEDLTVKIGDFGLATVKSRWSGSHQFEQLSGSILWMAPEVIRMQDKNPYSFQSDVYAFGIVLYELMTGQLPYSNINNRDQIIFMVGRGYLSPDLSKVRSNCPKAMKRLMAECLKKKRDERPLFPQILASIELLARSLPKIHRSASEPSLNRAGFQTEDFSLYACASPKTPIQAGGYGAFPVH
Sequence of HIPK3 (Q9H422 whole entry): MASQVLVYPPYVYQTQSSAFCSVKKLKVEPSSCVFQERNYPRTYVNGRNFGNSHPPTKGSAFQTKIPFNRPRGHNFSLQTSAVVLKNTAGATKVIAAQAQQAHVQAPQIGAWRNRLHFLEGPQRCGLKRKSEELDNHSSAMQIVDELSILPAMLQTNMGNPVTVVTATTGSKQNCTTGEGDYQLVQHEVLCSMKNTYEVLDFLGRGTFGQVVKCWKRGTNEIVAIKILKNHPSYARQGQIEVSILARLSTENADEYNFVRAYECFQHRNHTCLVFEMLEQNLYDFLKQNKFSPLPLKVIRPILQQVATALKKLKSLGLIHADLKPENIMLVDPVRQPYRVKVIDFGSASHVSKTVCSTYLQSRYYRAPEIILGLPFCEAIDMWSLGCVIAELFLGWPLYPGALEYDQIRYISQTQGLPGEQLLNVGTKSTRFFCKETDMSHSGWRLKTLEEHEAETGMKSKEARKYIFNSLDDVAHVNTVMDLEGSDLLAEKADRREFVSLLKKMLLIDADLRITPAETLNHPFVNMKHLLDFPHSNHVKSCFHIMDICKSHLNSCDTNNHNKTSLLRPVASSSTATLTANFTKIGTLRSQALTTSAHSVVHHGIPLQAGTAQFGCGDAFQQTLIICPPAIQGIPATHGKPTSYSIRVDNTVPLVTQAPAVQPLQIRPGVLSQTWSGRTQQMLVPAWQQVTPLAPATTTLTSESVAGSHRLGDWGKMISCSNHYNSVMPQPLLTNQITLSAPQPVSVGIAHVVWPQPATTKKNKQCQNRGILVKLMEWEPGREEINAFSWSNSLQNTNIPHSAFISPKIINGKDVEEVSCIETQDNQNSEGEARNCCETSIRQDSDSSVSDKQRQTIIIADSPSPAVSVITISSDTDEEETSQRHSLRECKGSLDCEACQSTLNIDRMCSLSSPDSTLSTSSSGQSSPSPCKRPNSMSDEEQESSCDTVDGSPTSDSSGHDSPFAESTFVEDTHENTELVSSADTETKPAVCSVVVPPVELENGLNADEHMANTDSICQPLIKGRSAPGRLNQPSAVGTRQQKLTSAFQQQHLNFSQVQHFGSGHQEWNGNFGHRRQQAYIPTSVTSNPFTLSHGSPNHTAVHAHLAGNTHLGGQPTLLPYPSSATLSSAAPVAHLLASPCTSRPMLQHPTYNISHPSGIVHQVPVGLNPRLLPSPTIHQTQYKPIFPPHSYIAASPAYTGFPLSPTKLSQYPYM
Sequence of PIK3CG (P48736 whole entry): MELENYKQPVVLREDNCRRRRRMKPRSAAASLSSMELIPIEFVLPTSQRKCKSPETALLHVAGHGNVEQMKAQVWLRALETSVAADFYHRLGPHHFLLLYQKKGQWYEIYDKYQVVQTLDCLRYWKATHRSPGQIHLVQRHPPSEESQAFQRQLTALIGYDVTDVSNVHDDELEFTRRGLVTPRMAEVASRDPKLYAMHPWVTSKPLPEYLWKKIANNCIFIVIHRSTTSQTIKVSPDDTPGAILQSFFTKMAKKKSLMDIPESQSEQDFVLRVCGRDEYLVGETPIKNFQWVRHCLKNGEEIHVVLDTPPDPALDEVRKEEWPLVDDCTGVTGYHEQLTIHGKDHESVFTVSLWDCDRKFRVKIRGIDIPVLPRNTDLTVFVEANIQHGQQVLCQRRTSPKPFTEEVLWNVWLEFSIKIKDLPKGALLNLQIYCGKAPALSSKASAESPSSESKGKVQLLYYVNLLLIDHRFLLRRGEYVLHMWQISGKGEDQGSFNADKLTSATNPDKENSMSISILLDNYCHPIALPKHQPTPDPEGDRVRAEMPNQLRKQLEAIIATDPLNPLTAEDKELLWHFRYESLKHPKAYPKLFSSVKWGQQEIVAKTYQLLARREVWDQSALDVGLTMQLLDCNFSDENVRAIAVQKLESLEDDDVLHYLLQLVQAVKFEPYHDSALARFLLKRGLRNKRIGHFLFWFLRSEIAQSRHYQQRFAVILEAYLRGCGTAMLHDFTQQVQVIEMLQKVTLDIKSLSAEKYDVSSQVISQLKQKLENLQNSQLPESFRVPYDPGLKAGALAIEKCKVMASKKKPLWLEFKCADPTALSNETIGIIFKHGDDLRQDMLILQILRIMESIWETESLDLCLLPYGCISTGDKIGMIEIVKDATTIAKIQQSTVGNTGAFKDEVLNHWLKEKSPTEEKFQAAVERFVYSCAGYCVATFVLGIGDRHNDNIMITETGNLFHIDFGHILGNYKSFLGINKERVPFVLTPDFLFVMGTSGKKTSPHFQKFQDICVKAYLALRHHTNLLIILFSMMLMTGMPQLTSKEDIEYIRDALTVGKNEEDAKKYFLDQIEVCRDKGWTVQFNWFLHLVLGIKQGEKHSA
Sequence of AKT2 (P31751 whole entry): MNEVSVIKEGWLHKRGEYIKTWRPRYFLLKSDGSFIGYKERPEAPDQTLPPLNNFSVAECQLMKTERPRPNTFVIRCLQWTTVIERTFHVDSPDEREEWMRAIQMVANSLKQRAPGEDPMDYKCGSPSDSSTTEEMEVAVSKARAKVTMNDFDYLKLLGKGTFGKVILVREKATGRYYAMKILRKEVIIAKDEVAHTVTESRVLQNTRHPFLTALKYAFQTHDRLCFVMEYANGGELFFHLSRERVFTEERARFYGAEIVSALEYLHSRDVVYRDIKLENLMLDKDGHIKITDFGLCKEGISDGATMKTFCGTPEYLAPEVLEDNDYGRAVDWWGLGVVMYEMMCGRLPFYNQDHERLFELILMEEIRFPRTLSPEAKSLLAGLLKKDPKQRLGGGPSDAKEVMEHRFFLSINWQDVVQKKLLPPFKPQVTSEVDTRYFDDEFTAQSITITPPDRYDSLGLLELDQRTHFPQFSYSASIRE
Sequence of p38-delta (O15264 whole entry): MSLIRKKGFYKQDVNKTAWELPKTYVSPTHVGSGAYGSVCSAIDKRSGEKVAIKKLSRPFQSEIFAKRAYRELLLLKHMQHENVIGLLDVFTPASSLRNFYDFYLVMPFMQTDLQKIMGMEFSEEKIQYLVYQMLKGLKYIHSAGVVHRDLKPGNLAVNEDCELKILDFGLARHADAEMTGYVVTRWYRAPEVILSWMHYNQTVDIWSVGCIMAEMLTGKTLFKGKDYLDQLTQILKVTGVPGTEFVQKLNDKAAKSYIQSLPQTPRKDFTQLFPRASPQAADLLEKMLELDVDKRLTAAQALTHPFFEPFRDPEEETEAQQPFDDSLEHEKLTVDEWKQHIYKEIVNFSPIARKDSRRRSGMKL
Sequence of PRKCQ (Q04759 whole entry): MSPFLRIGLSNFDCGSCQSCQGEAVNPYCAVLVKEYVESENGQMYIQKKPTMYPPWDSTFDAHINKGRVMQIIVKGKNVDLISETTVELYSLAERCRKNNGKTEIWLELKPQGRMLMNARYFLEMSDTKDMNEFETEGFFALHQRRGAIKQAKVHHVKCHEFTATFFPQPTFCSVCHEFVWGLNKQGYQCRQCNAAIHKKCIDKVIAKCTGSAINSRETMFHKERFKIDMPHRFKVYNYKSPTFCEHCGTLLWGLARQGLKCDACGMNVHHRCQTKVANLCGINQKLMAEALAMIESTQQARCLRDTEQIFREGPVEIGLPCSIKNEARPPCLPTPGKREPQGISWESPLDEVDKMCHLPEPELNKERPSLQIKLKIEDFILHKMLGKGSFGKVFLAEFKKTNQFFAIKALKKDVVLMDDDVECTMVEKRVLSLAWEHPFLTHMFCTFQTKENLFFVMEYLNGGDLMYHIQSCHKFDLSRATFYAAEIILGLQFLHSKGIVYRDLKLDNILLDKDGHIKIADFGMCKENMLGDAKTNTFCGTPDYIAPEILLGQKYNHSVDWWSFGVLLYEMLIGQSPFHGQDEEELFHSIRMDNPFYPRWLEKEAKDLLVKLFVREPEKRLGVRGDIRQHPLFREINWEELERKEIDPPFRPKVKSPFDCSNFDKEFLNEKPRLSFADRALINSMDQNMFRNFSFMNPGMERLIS
Sequence of CDK9 (P50750 whole entry): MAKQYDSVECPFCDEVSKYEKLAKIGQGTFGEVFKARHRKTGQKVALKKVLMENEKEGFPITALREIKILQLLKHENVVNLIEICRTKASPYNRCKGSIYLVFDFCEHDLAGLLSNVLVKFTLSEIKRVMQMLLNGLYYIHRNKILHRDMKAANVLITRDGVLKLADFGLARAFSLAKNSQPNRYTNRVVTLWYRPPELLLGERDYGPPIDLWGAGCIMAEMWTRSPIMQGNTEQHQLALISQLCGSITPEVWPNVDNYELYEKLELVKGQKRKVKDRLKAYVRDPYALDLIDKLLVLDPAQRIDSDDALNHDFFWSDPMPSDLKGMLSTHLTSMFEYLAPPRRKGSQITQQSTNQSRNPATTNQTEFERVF

| SMILES | remaining binding at 1 µM (p38-delta) [%] | remaining binding at 1 µM (CDK4-cyclinD1) [%] | remaining binding at 1 µM (KIT(A829P)) [%] | remaining binding at 1 µM (CDK4-cyclinD3) [%] | remaining binding at 1 µM (FLT3-autoinhibited) [%] | remaining binding at 1 µM (ROS1) [%] | remaining binding at 1 µM (AMPK-alpha1) [%] | remaining binding at 1 µM (CDK9) [%] | remaining binding at 1 µM (HIPK3) [%] | remaining binding at 1 µM (PAK6) [%] | remaining binding at 1 µM (PAK7) [%] | remaining binding at 1 µM (KIT(V559D, V654A)) [%] | remaining binding at 1 µM (PRKCQ) [%] | remaining binding at 1 µM (NEK4) [%] | remaining binding at 1 µM (TRKA) [%] | remaining binding at 1 µM (EPHB3) [%] | remaining binding at 1 µM (ERBB3) [%] | remaining binding at 1 µM [1] [%] | remaining binding at 1 µM (PIM2) [%] | remaining binding at 1 µM [2] [%] | further results |
| --- | --- | --- | --- | --- | --- | --- | --- | --- | --- | --- | --- | --- | --- | --- | --- | --- | --- | --- | --- | --- | --- |
| CCNc1cc(Nc2ccc(C(=O)N3CCC(N4CCOCC4)CC3)cc2OC)nc2[nH]cc(C(F)(F)F)c12 [Example 57, (4-((4-(ethylamino)-3-(trifluoromethyl)-1H-pyrrolo[2,3-b]pyridin-6-yl)amino)-3-methoxyphenyl) (4-morpholinopiperidin-1-yl)methanone] | 85 | 95 | 100 | 100 | 92 | 69 | 75 | 85 | 71 | 78 | 100 | 84 | 96 | 99 | 100 | 85 | 100 | 100 | 98 | 100 | remaining binding at 1 µM (KIT(V559D)): 77%; remaining binding at 1 µM (DAPK3): 86%; remaining binding at 1 µM (PRKG1): 98%; remaining binding at 1 µM (PAK4): 93%; remaining binding at 1 µM (CAMK2A): 72%; remaining binding at 1 µM (MAP4K4): 100%; remaining binding at 1 µM (FYN): 87%; remaining binding at 1 µM (TAOK2): 85%; remaining binding at 1 µM (SGK2): 100%; remaining binding at 1 µM (ANKK1): 100%; remaining binding at 1 µM (EGFR): 59%; remaining binding at 1 µM (PIK3CG): 87%; remaining binding at 1 µM (AKT2): 90%; remaining binding at 1 µM (QSK): 87%; remaining binding at 1 µM (ULK2): 93%; remaining binding at 1 µM (EPHB4): 88%; remaining binding at 1 µM (DAPK2): 71%; remaining binding at 1 µM (BRAF): 98%; remaining binding at 1 µM (MEK5): 99% |
| CCNc1cc(Nc2ccc(C(=O)N3CCC(N4CCOCC4)CC3)cc2OC)nc2[nH]cc(C#N)c12 [Example 18, 4-(ethylamino)-6-((2-methoxy-4-(4-morpholinopiperidine-1-carbonyl)phenyl)amino)-1H-pyrrolo[2,3-b]pyridine-3-carbonitrile] | 99 | 100 | 99 | 100 | 82 | 83 | 92 | 100 | 74 | 98 | 80 | 97 | 94 | 86 | 86 | 93 | 97 | 67 | 96 | 100 | remaining binding at 1 µM (KIT(V559D)): 33%; remaining binding at 1 µM (DAPK3): 14%; remaining binding at 1 µM (PRKG1): 64%; remaining binding at 1 µM (PAK4): 88%; remaining binding at 1 µM (CAMK2A): 72%; remaining binding at 1 µM (MAP4K4): 100%; remaining binding at 1 µM (FYN): 78%; remaining binding at 1 µM (TAOK2): 77%; remaining binding at 1 µM (SGK2): 64%; remaining binding at 1 µM (ANKK1): 78%; remaining binding at 1 µM (EGFR): 100%; remaining binding at 1 µM (PIK3CG): 100%; remaining binding at 1 µM (AKT2): 87%; remaining binding at 1 µM (QSK): 92%; remaining binding at 1 µM (ULK2): 67%; remaining binding at 1 µM (EPHB4): 100%; remaining binding at 1 µM (DAPK2): 16%; remaining binding at 1 µM (BRAF): 83%; remaining binding at 1 µM (MEK5): 77% |
